Source: patent US6194451A, “Matrix metalloproteinase inhibitors” (Pharmacia & Upjohn S.p.A., priority 1997, dated 2001)
pKi: −log10 of the molar value.

Key:
[1] = target: T1, MMP-1 (human interstitial collagenase) (Homo sapiens, UniProt P03956); test: Biochemical Assay (Protocol A): inhibition of human collagenase, fluorimetric peptide substrate; conditions: MMP-1, pH 7.4, 37° C.
T1 construct: truncated recombinant enzyme encompassing residues 101-269
T1 sequence (P03956 101-269): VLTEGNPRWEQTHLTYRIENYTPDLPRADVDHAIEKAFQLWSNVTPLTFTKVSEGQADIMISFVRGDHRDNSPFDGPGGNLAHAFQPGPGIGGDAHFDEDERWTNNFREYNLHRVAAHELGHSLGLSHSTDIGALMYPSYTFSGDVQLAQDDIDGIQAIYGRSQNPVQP
From the text: (§1) As mentioned above, although low molecular weight MMP inhibitors, including hydroxamates of general formula (A), are already known, there is a strong need for better and diversified molecules for their use in medicine, that is in particular in the control or prevention of degenerative joint diseases such as rheumatoid arthritis and osteoarthritis, or in the management of multiple sclerosis, or in the treatment of invasive tumors. […] For example, the following protocol was used to assess the biochemical activity of compounds of formula (I) against MMP-1, MMP-2, and MMP-3 (respectively, human interstitial collagenase, gelatinase A, and stromelysin-1).
(§2) Human gelatinase-A (MMP-2) was obtained as pro-enzyme (72 kDa) and was activated with 1 mM 4-aminophenylmercuric acetate for 30 min at 37° C. immediately prior to use. Human stromelysin-1 (MMP-3) was obtained as a recombinant pro-enzyme isolated either from E. coli or from baculovirus infected Sf9 insect cells and activated either by heat (1 h, 55° C.) or by 5 mg/l trypsin (30 min, 37° C.) before addition of soybean trypsin inhibitor, finally removed by centrifugation.
(§3) All enzyme assays to determine values of the enzyme-inhibitor dissociation constants were performed using the peptide substrate (7-methoxycoumarin-4-yl)Acetyl-Pro-Leu-Gly-Leu-(3-[2,4-dinitrophenyl]-L-2,3-diaminopropionyl)-Ala-Arg-NH2 (Mca-Pro-Leu-Gly-Leu-Dpa-Ala-Arg--NH2) (C. G. Knight et al., FEBS Lett. 296:263-266, 1992). The enzymes cleave at the Gly-Leu bond removing the internally quenching Dpa group. The release of the highly fluorescent peptide Mca-Pro-Leu was followed fluorimetrically setting the excitation wavelength at 326 nm (bandwidth 5 nm) and the emission at 392 nm (bandwidth 20 nm).
(§4) Continuous fluorescence assay was carried out using a Perkin Elmer LS-50 Fluorescence Spectrophotometer fitted with a thermostatted four position stirring cell changer. Inhibitors were dissolved in the assay buffer ([…] Tris/HCl pH 7.4 containing 0.15 M NaCl, 10 mM CaCl2, 0.01 mM ZnCl2 and 0.05% Brij 35) thermostatted at 37° C. The reaction was started by the addition of substrate ([…]), followed by the addition of the enzyme (e.g. 1.0 nM collagenase, 0.04 nM gelatinase, or 3.0 nM stromelysin) and the increase in fluorescence was monitored over 30 min. The run was repeated at different concentrations of inhibitors in the range 0.1-10000 nM and data at inhibitor concentration in the region if their enzyme-inhibitor dissociation constants were used for calculation.
(§5) Substrate consumption was within 5% of the initial concentration and data outside this range were discarded. The Michaelis constants (Km) for the enzyme-substrate complexes is […] or greater (C. G. Knight et al., reference above), so that the factor (1+S/Km) can be approximated to unity without appreciable error.

[2] = target: T2, MMP-2 (human gelatinase A) (Homo sapiens, UniProt P08253); test: Biochemical Assay (Protocol A): inhibition of human gelatinase A, fluorimetric peptide substrate; conditions: MMP-2, pH 7.4, 37° C.
T2 sequence (P08253 110-660): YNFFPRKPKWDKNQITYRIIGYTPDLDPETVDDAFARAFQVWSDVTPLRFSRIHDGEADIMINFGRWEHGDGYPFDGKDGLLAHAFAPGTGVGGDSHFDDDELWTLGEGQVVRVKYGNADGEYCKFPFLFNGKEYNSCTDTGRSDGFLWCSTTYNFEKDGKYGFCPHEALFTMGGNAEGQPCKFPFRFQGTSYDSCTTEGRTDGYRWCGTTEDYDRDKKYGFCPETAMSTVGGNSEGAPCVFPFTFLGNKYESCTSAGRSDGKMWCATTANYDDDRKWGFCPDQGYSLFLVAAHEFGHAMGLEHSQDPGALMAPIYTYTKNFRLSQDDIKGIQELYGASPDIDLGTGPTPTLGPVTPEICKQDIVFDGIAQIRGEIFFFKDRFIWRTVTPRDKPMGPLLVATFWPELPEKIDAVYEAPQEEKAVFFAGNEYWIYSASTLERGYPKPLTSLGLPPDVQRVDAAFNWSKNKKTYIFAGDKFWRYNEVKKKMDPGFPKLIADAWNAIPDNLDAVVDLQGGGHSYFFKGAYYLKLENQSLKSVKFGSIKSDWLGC
From the text: as §1, §2, §3, §4, §5

[3] = target: T3, MMP-3 (human stromelysin-1) (Homo sapiens, UniProt P08254); test: Biochemical Assay (Protocol A): inhibition of human stromelysin-1, fluorimetric peptide substrate; conditions: MMP-3, pH 7.4, 37° C.
T3 construct: host or cells: E. coli or baculovirus-infected Sf9 insect cells
From the text: as §1, §2, §3, §4, §5

Aqueous solubility = assay type: physicochemical; conditions: water, pH 7.0, 25° C.
Experimental: Further, several compounds of formula (I), in particular when R2 is hydroxy, and when R1 is hydroxymethyl, have enhanced water solubility as compared to the vast majority of MMP inhibitors of the prior art. An aqueous solubility threshold, which may vary widely but can be roughly set in the range of 1-10 mg/mL, makes systemic administration easy, and more than often is essential to good oral bioavailability.

T3 sequence (P08254 100-477): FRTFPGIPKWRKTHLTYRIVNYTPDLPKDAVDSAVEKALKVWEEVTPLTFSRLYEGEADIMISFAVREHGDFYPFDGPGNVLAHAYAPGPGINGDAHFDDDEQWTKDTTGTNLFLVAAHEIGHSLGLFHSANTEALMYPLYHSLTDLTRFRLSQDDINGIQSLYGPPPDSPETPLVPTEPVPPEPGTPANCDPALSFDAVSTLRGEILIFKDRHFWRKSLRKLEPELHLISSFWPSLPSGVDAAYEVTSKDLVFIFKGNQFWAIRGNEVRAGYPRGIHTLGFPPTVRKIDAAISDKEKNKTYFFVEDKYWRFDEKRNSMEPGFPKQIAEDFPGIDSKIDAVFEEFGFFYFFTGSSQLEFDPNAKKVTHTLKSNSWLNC

Structure (SMILES): CNC(=O)[C@@H](NC(=O)[C@H](CC(C)C)[C@](O)(CO)C(=O)NO)C(C)(C)C [Example 3]
- pKi [1]: 8.64
- pKi [2]: 8.04
- pKi [3]: 6.82
- solubility (Aqueous solubility): > 15 mg/mL
